Measured values as given in US10441562B2, “Aromatic farnesyl compound and application thereof” (INSTITUTE OF MICROBIOLOGY, CHINESE ACADEMY OF SCIENCES, priority 2015, dated 2019).
Read-outs that look alike come from different tables or passages of the source.

Columns and labels:
Assay type in all cases: biochemical
dipeptidyl peptidase-4 = target: T1, dipeptidyl peptidase-4 (Homo sapiens, UniProt P27487); test: dipeptidyl peptidase-4 inhibitory activity test in vitro (DPP-4 inhibitor screening kit)
T1 construct: purchased
T1 sequence (P27487 whole entry, species assumed): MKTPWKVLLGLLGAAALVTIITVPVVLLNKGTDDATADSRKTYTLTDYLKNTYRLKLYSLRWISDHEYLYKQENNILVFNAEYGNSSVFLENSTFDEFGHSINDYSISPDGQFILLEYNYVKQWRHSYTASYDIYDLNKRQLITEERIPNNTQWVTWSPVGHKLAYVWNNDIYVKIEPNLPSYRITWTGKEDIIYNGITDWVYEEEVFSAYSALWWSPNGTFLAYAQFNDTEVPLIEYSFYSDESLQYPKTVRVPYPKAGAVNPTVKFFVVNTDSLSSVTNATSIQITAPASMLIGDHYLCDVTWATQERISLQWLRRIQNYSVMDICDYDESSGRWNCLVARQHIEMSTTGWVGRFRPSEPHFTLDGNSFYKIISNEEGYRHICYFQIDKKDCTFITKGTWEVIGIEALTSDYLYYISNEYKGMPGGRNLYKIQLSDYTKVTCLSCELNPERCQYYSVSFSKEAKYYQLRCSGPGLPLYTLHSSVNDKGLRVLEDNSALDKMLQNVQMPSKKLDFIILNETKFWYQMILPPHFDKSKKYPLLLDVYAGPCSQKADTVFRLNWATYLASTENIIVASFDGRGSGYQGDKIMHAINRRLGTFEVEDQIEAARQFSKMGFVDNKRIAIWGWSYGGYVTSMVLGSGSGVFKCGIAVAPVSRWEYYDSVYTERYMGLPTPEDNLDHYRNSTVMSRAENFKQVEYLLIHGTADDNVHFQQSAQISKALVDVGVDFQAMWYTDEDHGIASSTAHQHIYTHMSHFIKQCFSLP
Description: The above compounds are detected by DPP-4 inhibitor screening kit.

[1] = target: T2, protein tyrosine phosphatase 1B (PTP-1B) (Homo sapiens, UniProt P18031); test: PTP-1B inhibitory activity test in vitro
T2 sequence (P18031 1-435): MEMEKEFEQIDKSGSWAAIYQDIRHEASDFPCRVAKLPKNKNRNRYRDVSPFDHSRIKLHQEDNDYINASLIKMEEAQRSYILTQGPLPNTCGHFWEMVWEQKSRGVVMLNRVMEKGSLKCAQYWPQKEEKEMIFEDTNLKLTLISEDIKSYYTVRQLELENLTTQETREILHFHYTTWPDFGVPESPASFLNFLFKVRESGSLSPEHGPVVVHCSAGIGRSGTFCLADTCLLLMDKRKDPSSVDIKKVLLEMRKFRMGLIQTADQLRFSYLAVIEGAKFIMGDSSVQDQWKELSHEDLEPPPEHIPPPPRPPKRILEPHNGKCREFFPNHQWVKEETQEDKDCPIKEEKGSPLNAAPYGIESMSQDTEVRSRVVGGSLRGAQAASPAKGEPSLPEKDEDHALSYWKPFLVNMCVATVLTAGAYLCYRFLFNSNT
Protocol: Experimental procedure: the following reagents are added into 96-well plates in sequence and the mixture ratios of different groups are as followings: Test group: 50 μL compound solution+50 μL 170 μg/mL PTP-1B solution […] Blank group: 50 μL buffer solution+50 μL 170 μg/mL PTP-1B solution Background group: 50 μL compound solution+50 μL buffer solution After adding the reagents, the 96-well plate is […] for 10 min at room temperature to make the compound and the enzyme react completely. Add 50 μL 1 mM pNPP solution which is used as substrate and incubate the mixed solution at 37 °C for 30 min. Then add 50 μL 3M NaOH into each well of the plate to stop the reaction and the optical density is detected at […].

HMG-CoA reductase = target: T3, HMG-CoA reductase (Homo sapiens, UniProt P04035); test: HMG-CoA reductase inhibitory activity test in vitro
T3 sequence (P04035 426-888 limits assumed): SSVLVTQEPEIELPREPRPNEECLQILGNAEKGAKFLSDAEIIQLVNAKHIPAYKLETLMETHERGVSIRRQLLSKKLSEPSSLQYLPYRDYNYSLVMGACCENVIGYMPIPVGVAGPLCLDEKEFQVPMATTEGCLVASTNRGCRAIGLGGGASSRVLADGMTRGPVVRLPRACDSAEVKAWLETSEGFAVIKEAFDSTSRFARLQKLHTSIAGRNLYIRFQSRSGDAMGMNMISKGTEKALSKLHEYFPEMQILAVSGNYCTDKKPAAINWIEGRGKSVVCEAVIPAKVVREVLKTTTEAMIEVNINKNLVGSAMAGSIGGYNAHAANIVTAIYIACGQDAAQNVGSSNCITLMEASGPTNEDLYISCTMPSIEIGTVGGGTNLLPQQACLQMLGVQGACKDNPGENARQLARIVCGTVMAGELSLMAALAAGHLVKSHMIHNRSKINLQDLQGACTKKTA
Protocol: Add 25 μL HMG-CoA reductase water solution (0.2 U/mL), 25 μL NADPH water solution (0.2 U/mL) and 24 μL phosphate buffer (50 mM, pH 7.0) into 1 μL different concentration of the above test solution. The mixed solution is standed for 10 min at room temperature, and then 25 μL HMG-CoA is added into the mixed solution. After the solution is incubated at 37∞ for 30 min and centrifuged at 5000 rpm for 5 minutes, 80 uL supernatant is added into 96-well plates and the absorbance is detected at 550 nm.
(§1) Repeat each of the above experiment groups for 3 times, and then average the results.

aldose reductase = aldose reductase (Homo sapiens, UniProt P15121); test: aldose reductase inhibitory activity test in vitro
Protocol: Experimental procedure: the following reagents are added into 96-well plates in sequence and the mixture ratios of different groups are as followings:
Test group: 10 μL compound solution+25 μL (0.1 mM) NADPH solution+25 μL PBS buffer solution+15 μL aldose reductase diluent
Blank group: 25 μL (0.1 mM) NADPH solution+35 μL PBS buffer solution+15 μL aldose reductase diluent
Background group: 25 μL (0.1 mM) NADPH solution+60 μL PBS buffer solution+15 μL aldose reductase diluent
After adding the reagents, the 96-well plate is standed for 10 min at room temperature to make the compound and the enzyme react completely. Add 25 μL 10 mM D, L glyceraldehyde solution which is used as substrate into the groups except for background group, and incubate the solution at 37 °C for 30 min. Then detect the optical density of each well at 340 nm.

α-glucosidase = target: T4, α-glucosidase (Saccharomyces cerevisiae, UniProt P53341); test: α-glucosidase inhibitory activity test in vitro
T4 construct: purchased Sigma Corporation G5003
T4 sequence (P53341 whole entry): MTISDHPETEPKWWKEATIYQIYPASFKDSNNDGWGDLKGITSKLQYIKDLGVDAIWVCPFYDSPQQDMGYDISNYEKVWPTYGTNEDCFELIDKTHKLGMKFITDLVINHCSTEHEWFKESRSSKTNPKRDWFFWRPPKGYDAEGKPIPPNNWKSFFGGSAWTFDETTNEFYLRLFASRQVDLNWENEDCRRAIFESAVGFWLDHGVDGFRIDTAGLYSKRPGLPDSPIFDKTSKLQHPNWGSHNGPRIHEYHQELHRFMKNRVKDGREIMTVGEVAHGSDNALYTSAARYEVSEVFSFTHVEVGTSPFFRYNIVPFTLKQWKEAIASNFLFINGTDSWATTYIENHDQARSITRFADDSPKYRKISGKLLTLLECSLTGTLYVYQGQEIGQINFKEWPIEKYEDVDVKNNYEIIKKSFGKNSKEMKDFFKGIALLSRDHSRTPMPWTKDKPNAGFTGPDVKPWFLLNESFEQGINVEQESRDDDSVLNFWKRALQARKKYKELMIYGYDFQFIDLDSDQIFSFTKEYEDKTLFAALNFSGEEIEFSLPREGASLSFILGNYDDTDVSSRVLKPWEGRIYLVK
Protocol: Add 25 μL α-glucosidase water solution (0.2 U/mL) and 175 μL phosphate buffer (50 mM, pH 7.0) into 25 μL different concentration of the above test solutions. The mixed solution is standed for 10 min at room temperature, and then 25 μL 4-nitrophenyl-α-D-glucopyranoside water solution (2.5 mM) is added into the mixed solution. After the solution is incubated at 37 °C for 30 min and centrifuged at 5000 rpm for 5 minutes, 150 uL supernatant is added into 96-well plates and the absorbance is detected at 405 nm.
Blank group: the test solution is replaced by 25 μL phosphate buffer (50 mM, pH 7.0); blank control group: the test solution is replaced by 25 μL phosphate buffer (50 mM, pH 7.0), meanwhile α-glucosidase water solution is replaced by 25 μL phosphate buffer (50 mM, pH 7.0); sample control group: α-glucosidase water solution is replaced by 25 μL phosphate buffer (50 mM, pH 7.0).
as §1
IC50=[CL(IH−50)+CH(50−IL)]/(IH−IL) CL: low concentration value; CH: high concentration value; IH: inhibition rate in high concentration; IL: inhibition rate in low concentration

[2] = read-out: α-glucosidase inhibitory activity (IC50)

SMILES: CCc1ccc([C@@H]2C=C(CC/C=C(\C)CCC=C(C)C)C(=O)O2)cc1 [S22, (S,E)-3-(4,8-dimethylnona-3,7-dien-1-yl)-5-(4-ethylphenyl)furan-2(5H)-one]
- IC50 (dipeptidyl peptidase-4): 9.5 µM
- IC50 [1]: 16.4 µM
- IC50 (HMG-CoA reductase): 4.2 µM
- IC50 (aldose reductase): 55.6 µM
- IC50 (α-glucosidase; [2]): 0.92 µM

SMILES: CC(C)=CCC/C(C)=C/CCC1=C[C@@H](c2ccc(C(C)C)cc2)OC1=O [S23, (S,E)-3-(4,8-dimethylnona-3,7-dien-1-yl)-5-(4-isopropylphenyl)furan-2(5H)-one]
- IC50 (dipeptidyl peptidase-4): 8.8 µM
- IC50 [1]: 9.6 µM
- IC50 (HMG-CoA reductase): 87.2 µM
- IC50 (aldose reductase): 93.1 µM
- IC50 (α-glucosidase; [2]): 49.2 µM

SMILES: CC(C)=CCC/C(C)=C/CCC1=C[C@@H](c2ccc(C(C)(C)C)cc2)OC1=O [S24, (S,E)-5-(4-(tert-butyl)phenyl)-3-(4,8-dimethylnona-3,7-dien-1-yl)furan-2 (5H)-one]
- IC50 (dipeptidyl peptidase-4): 15.8 µM
- IC50 [1]: 17.6 µM
- IC50 (HMG-CoA reductase): 15.2 µM
- IC50 (aldose reductase): 1.2 µM
- IC50 (α-glucosidase; [2]): 0.23 µM

SMILES: COc1ccc([C@@H]2C=C(CC/C=C(\C)CCC=C(C)C)C(=O)O2)cc1 [S25, (S,E)-3-(4,8-dimethylnona-3,7-dien-1-yl)-5-(4-methoxyphenyl)furan-2(5H)-one]
- IC50 (dipeptidyl peptidase-4): 18.5 µM
- IC50 [1]: 16.5 µM
- IC50 (HMG-CoA reductase): 1.5 µM
- IC50 (aldose reductase): 101 µM
- IC50 (α-glucosidase; [2]): 52.1 µM

SMILES: CC(C)=CCC/C(C)=C/CCC1=C[C@@H](c2ccc([N+](=O)[O-])cc2)OC1=O [S26, (S,E)-3-(4,8-dimethylnona-3,7-dien-1-yl)-5-(4-nitrophenyl)furan-2(5H)-one]
- IC50 (dipeptidyl peptidase-4): 10.6 µM
- IC50 [1]: 9.8 µM
- IC50 (HMG-CoA reductase): 7.5 µM
- IC50 (aldose reductase): 5.3 µM
- IC50 (α-glucosidase; [2]): 30.3 µM

SMILES: COc1ccc(OC)c([C@@H]2C=C(CC/C=C(\C)CCC=C(C)C)C(=O)O2)c1 [S27, (S,E)-5-(2,5-dimethoxyphenyl)-3-(4,8-dimethylnona-3,7-dien-1-yl)furan-2(5H)-one]
- IC50 (dipeptidyl peptidase-4): 8.6 µM
- IC50 [1]: 12.3 µM
- IC50 (HMG-CoA reductase): 4.4 µM
- IC50 (aldose reductase): 25.2 µM
- IC50 (α-glucosidase; [2]): 15.3 µM

SMILES: CC(C)=CCC/C(C)=C/CCC1=C[C@@H](c2c(F)cccc2F)OC1=O [S29, (S,E)-5-(2,6-difluorophenyl)-3-(4,8-dimethylnona-3,7-dien-1-yl)furan-2(5H)-one]
- IC50 (dipeptidyl peptidase-4): 23.5 µM
- IC50 [1]: 4.4 µM
- IC50 (HMG-CoA reductase): 16.8 µM
- IC50 (aldose reductase): 33.5 µM
- IC50 (α-glucosidase; [2]): 3.95 µM

SMILES: CC(C)=CCC/C(C)=C/CCC1=C[C@@H](c2cc(F)c(F)c(F)c2)OC1=O [S30, (S,E)-3-(4,8-dimethylnona-3,7-dien-1-yl)-5-(3,4,5-trifluorophenyl)furan-2(5H)-one]
- IC50 (dipeptidyl peptidase-4): 11.6 µM
- IC50 [1]: 21.1 µM
- IC50 (HMG-CoA reductase): 24.2 µM
- IC50 (aldose reductase): 53.4 µM
- IC50 (α-glucosidase; [2]): 1.25 µM

SMILES: COC1(c2cc(O)ccc2O)C=C(CC/C=C(\C)CCC=C(C)C)C(=O)O1 (centres unmarked) [S31, (E)-5-(2,5-dihydroxyphenyl)-3-(4,8-dimethylnona-3,7-dien-1-yl)-5-meth oxyfuran-2(5H)-one]
- IC50 (dipeptidyl peptidase-4): 15.4 µM
- IC50 [1]: 15.4 µM
- IC50 (HMG-CoA reductase): 32.3 µM
- IC50 (aldose reductase): 87.6 µM
- IC50 (α-glucosidase): 3.23 µM

SMILES: CC(C)=CCC/C(C)=C/CC/C(=C/C(=O)c1cc(O)ccc1O)C(=O)O [S32, (2Z,5E)-2-(2-(2,5-dihydroxyphenyl)-2-oxoethylidene)-6,10-dimethylundeca-5,9-dienoic acid]
- IC50 (dipeptidyl peptidase-4): 21.2 µM
- IC50 [1]: 7.6 µM
- IC50 (HMG-CoA reductase): 5.4 µM
- IC50 (aldose reductase): 34.9 µM
- IC50 (α-glucosidase; [2]): 5.43 µM

SMILES: C/C(=C\CC/C(C)=C/CC/C(=C/Cc1cc(O)ccc1O)C(=O)O)CO [S33, (2Z,5E,9E)-2-(2-(2,5-dihydroxyphenyl)ethylidene)-11-hydroxy-6,10-dimethylundeca-5,9-dienoic acid]
- IC50 (dipeptidyl peptidase-4): 18.7 µM
- IC50 [1]: 4.5 µM
- IC50 (HMG-CoA reductase): 32.9 µM
- IC50 (aldose reductase): 23.1 µM
- IC50 (α-glucosidase): 12.2 µM

SMILES: CC(C)=CCC/C(C)=C/CC/C(=C/Cc1cc(O)ccc1O)C(=O)O [S34, (2Z,5E)-2-(2-(2,5-dihydroxyphenyl)ethylidene)-6,10-dimethylundeca-5,9-dienoic acid]
- IC50 (dipeptidyl peptidase-4): 15.2 µM
- IC50 [1]: 12.9 µM
- IC50 (HMG-CoA reductase): 12.6 µM
- IC50 (aldose reductase): 8.7 µM
- IC50 (α-glucosidase; [2]): 0.98 µM

SMILES: C/C(C=O)=C\CC/C(C)=C/CC/C(=C/Cc1cc(O)ccc1O)C(=O)O [S35, (2Z,5E,9E)-2-(2-(2,5-dihydroxyphenyl)ethylidene)-6,10-dimethyl-11-oxo undeca-5,9-dienoic acid]
- IC50 (dipeptidyl peptidase-4): 7.8 µM
- IC50 [1]: 12.3 µM
- IC50 (HMG-CoA reductase): 20.7 µM
- IC50 (aldose reductase): 5.6 µM
- IC50 (α-glucosidase): 12.3 µM

SMILES: CC(C)=CCC/C(C)=C/CCC(CC(=O)c1cc(O)ccc1O)C(=O)O (centres unmarked) [S36, (E)-2-(2-(2,5-dihydroxyphenyl)-2-oxoethyl)-6,10-dimethylundeca-5,9-dienoic acid]
- IC50 (dipeptidyl peptidase-4): 21.8 µM
- IC50 [1]: 11.4 µM
- IC50 (HMG-CoA reductase): 4.2 µM
- IC50 (aldose reductase): 6.3 µM
- IC50 (α-glucosidase): 3.2 µM

SMILES: CC(C)=CCCC1=C[C@H](c2cc(O)ccc2O)OC1=O [S37, (R)-5-(2,5-dihydroxyphenyl)-3-(4-methylpent-3-en-1-yl)furan-2(5H)-one]
- IC50 (dipeptidyl peptidase-4): 15.4 µM
- IC50 [1]: 12.3 µM
- IC50 (HMG-CoA reductase): 65.2 µM
- IC50 (aldose reductase): 12.6 µM
- IC50 (α-glucosidase; [2]): 1.32 µM

SMILES: CC(C)=CCCC1=C[C@@H](c2cc(O)ccc2O)OC1=O [S38, (S)-5-(2,5-dihydroxyphenyl)-3-(4-methylpent-3-en-1-yl)furan-2(5H)-one]
- IC50 (dipeptidyl peptidase-4): 12.9 µM
- IC50 [1]: 9.8 µM
- IC50 (HMG-CoA reductase): 12.5 µM
- IC50 (aldose reductase): 67.5 µM
- IC50 (α-glucosidase; [2]): 1.23 µM
